Assay results taken from ChEMBL document CHEMBL1151160, “Challenges and rewards of research in marine natural products chemistry in Brazil” (J Nat Prod, 2004).
≈ marks a conversion by molar mass, not a printed value.

Key:
Assay type in all cases: functional, cell-based
MCF7 [1] = test: Inhibition of G2 check point in gamma-irradiated human MCF7 cells expressing mutant p53 after 16 hrs by flow cytometry; conditions: MCF7, light or radiation study
MCF7 [2] = test: Cytotoxicity against human MCF7 cells after 16 hrs by Celltiter assay; conditions: MCF7, 16 h
HCT-116 = test: Cytotoxicity against human HCT116 cells

Row | Structure (SMILES) | IC50 (MCF7 [1]) | IC50 (MCF7 [2]) | IC50 (HCT-116)
1 | O=C1NC(=O)c2c1c1c3ccccc3[nH]c1n1cncc21 [ISOGRANULATIMIDE] | 1 µM | 40 µM | –
2 | CC(=O)OCC(C)CCC[C@@H](C)[C@H]1CC[C@H]2[C@@H]3C[C@@H](O)[C@@]4(O)C[C@@H](O[C@@H]5OC[C@@H](OC(C)=O)[C@@H](O)[C@@H]5O)CC[C@]4(C)[C@H]3CC[C@]12C (stereo not given in full) [RIISEIN B] | – | – | 2 µg/mL (≈ 3.06 µM)
3 | CC(=O)OCC(C)CCC[C@@H](C)[C@H]1CC[C@H]2[C@@H]3C[C@@H](O)[C@@]4(O)C[C@@H](O[C@@H]5OC[C@@H](O)[C@@H](OC(C)=O)[C@@H]5O)CC[C@]4(C)[C@H]3CC[C@]12C (stereo not given in full) [RIISEIN A] | – | – | 2 µg/mL (≈ 3.06 µM)
4 | O=C1NC(=O)c2c1c1[nH]cnc1c1[nH]c3ccccc3c21 [GRANULATIMIDE] | 1 µM | – | –
